Patent US10105367B2, “Therapeutic thiophene-, furan-, and pyridine-fused azolopyrimidin-5-(6h)-ones” (Dart Neuroscience (Cayman) Ltd., priority 2012, dated 2018)

What follows are compounds tested against human PDE1B (Homo sapiens (Human), UniProt Q01064) (assay: PDE1B inhibitory assay (IMAP TR-FRET)). Settings: PDE1B pIC50, negative log of half-maximal molar inhibitory concentration; 200 nM FAM-cAMP, Calmodulin, CaCl2.
Procedure: PDE1B inhibition was determined by an IMAP TR-FRET assay.
After a brief centrifugation, the plates were incubated for 30 minutes at room temperature. The assay was terminated by adding 5 μL IMAP binding reagent/Tb complex (Molecular Devices, Sunnyvale, Calif.) to each well.
Plates were incubated 1 hour at room temperature and read on a Viewlux multimode plate reader (Perkin Elmer). The instrument was set to excite using the DUG11 filter and measure using 490/10 nm and 520/10 nm filters. Ratios of acceptor and donor were then calculated.
For IC50 calculations, the values of % efficacy versus a series of compound concentrations were then plotted using non-linear regression analysis of sigmoidal dose-response curves generated with the equation Y=B+(T−B)/1+10((Log EC50−X)×Hill Slope), where Y=percent activity, B=minimum percent efficacy, T=maximum percent efficacy, X=logarithm of compound and Hill Slope=slope factor or Hill coefficient. The IC50 value was determined by the concentration causing a half-maximal percent efficacy.

SMILES	IC50
O=c1n(Cc2ccc(Cl)cc2)c2sccc2c2ncnn12 [Example 5]	0.1 to 1 µM
COc1ccc(Cn2c(=O)n3ncnc3c3cc(CN4CC5CCC(C4)O5)cnc32)cc1 [Example 227]	0.1 to 1 µM
COc1ccc(Cn2c(=O)n3ncnc3c3c4c(sc32)N(Cc2ccc(Cl)cc2)CCC4)cc1OC [Example 153]	1 to 10 µM
COc1ccc(Cn2c(=O)n3nccc3c3cc(CN4CCOCC4)sc32)cc1 [Example 183, 4-(4-Methoxybenzyl)-2-(morpholinomethyl)pyrazolo[1,5-c]thieno[3,2-e]pyrimidin-5(4H)-one]	0.1 to 1 µM
COc1ccc(Cn2c(=O)n3ncnc3c3cc(CN4CCOCC4)cnc32)cc1 [Example 205]	0.1 to 1 µM
COc1ccc(Cn2c(=O)n3ncnc3c3cc(CCNC(=O)OCc4ccccc4)cnc32)cc1 [Example 204, Benzyl 2-(6-(4-Methoxybenzyl)-5-oxo-5,6-dihydropyrido[3,2-e][1,2,4]triazolo[1,5-c]pyrimidin-9-yl)ethylcarbamate]	0.1 to 1 µM
CC(C)CCc1cc2c(s1)n(Cc1cccc(Cl)c1)c(=O)n1ncnc21 [Example 20]	1 to 10 µM
COc1ccc(Cn2c(=O)n3ncnc3c3cc(N4CCN(C5CC5)CC4)cnc32)cc1 [Example 193, 9-(4-Cyclopropylpiperazin-1-yl)-6-(4-methoxybenzyl)pyrido[3,2-e][1,2,4]triazolo[1,5-c]pyrimidin-5(6H)-one]	0.1 to 1 µM
Cc1csc2c1c1ncnn1c(=O)n2Cc1ccccc1Cl [Example 10]	1 to 10 µM
Cc1csc2c1c1ncnn1c(=O)n2Cc1ccccc1 [Example 6]	0.1 to 1 µM
O=c1n(Cc2ccccc2)c2sc(Cc3ccccc3)cc2c2ncnn12 [Example 17]	0.1 to 1 µM
COc1ccc(Cn2c(=O)n3ncnc3c3cc(-n4nc(C)ccc4=O)cnc32)cc1 [Example 192, 6-(4-Methoxybenzyl)-9-(3-methyl-6-oxopyridazin-1(6H)-yl)pyrido[3,2-e][1,2,4]triazolo[1,5-c]pyrimidin-5(6H)-one]	0.1 to 1 µM
COc1ccc(Cn2c(=O)n3ncnc3c3ncc(CN4C[C@@H](C)O[C@@H](C)C4)cc32)cc1 [Example 244]	1 to 10 µM
COc1ccc(Cn2c(=O)n3ncnc3c3ccc(CN(C)CC4CCOC4)nc32)cc1 (stereo not shown) [Example 259]	0.1 to 1 µM
O=c1n(Cc2ccc(Cl)cc2)c2sc3c(c2c2ncnn12)CCNC3 [Example 99, 6-(4-Chlorobenzyl)-8,9,10,11-tetrahydropyrido[4′,3′:4,5]thieno[3,2-e][1,2,4]triazolo[1,5-c]pyrimidin-5(6H)-one]	1 to 10 µM
C[C@@H]1CN(Cc2cnc3c(c2)c2ncnn2c(=O)n3Cc2cccc(I)c2)C[C@H](C)O1 [Example 284]	0.1 to 1 µM
COc1ccc(Cn2c(=O)n3ncnc3c3ncc(Br)cc32)cc1 [Example 186]	1 to 10 µM
COc1ccc(Cn2c(=O)n3ncnc3c3cc(CN(C)C4CCOCC4)cnc32)cc1 [Example 237]	1 to 10 µM
COc1ccc(Cn2c(=O)n3ncnc3c3cc(CN(C)C4CCCCC4)cnc32)cc1 [Example 235]	1 to 10 µM

Same assay, conditions: negative log of half-maximal molar inhibitory concentration; 200 nM FAM-cAMP, Calmodulin, CaCl2

SMILES	PDE1B pIC50
COc1ccc(Cn2c(=O)n3ncnc3c3c4c(sc32)CN(Cc2ncccn2)CCC4)cc1 [Example 145]	>7
COc1ccc(Cn2c(=O)n3ncnc3c3c4c(sc32)CN(CC2CCOC2)CC4)cc1 (stereo not shown) [Example 113]	>7
O=C(c1cnccn1)N1CCc2c(sc3c2c2ncnn2c(=O)n3Cc2ccc(Cl)cc2)C1 [Example 157, 6-(4-Chlorobenzyl)-9-(pyrazine-2-carbonyl)-8,9,10,11-tetrahydropyrido[4′,3′:4,5]thieno[3,2-e][1,2,4]triazolo[1,5-c]pyrimidin-5(6H)-one]	>7
C[C@@H]1CN(Cc2cnc3c(c2)c2ncnn2c(=O)n3Cc2ccccc2OC(F)F)C[C@H](C)O1 [Example 297]	<5
COc1ccc(Cn2c(=O)n3nccc3c3cc(CN4C[C@@H](C)O[C@@H](C)C4)sc32)cc1 [Example 184]	>7
Cc1csc2c1c1ncnn1c(=O)n2Cc1ccc(-c2ccccc2)cc1 [Example 7]	<5
